Measurements: patent US20080255076A1, “Steroid-Derived Pharmaceutical Compositions” (JadoLabs GmbH, priority 2004, published 2008)

How the values were obtained:
HIV-1 strain NL4-3 = experiment: HIV assay; assay type: cell-based; details: compared to solvent; for inhibition of HIV infection: 30 μM, HeLa TZM cells; for inhibition at 30 µM: Human immunodeficiency virus 1, NL43, HeLa TZM cells, read-out: inhibition of HIV infection
Raft liposomes = experiment: Disrafter-Liposome Raftophile Assay (D-LRA); details: for disrafting activity in the DLRA (in words): significance above 25% or below −25%; for % disrafting in the DLRA with perylene: indicator perylene 2 μM; for % disrafting in the DLRA with perylene / % disrafting in the DLRA with GS-96: test compound 100 μM final, negative = raft augmentation; for % disrafting in the DLRA: indicator not stated; for % disrafting in the DLRA with GS-96: indicator GS-96 0.2 μM
[1] = system: vesicular stomatitis virus (VSV); assay type: cell-based
Wild type SV40 viruses = experiment: SV40 infection assay; assay type: cell-based, Simian Virus 40; details: HeLa cells
Influenza virus = experiment: Virus budding assay (influenza assay); assay type: cell-based; details: MDCK cells; test compound 1 h; below 100% = inhibition
PR8 virus = experiment: microbe, parasite or virus in culture; assay type: cell-based, influenza virus
[2] = system: Rat basophilic leukemia (RBL-2H3) cells; experiment: Degranulation assay (β-hexosaminidase release); assay type: cell-based; details: 100 μM, compared to solvent vehicle
Experimental: The assay measures release of β-hexosaminidase as a marker of release of various preformed pharmacological agents in response to clustering of the high affinity IgE receptor (FcεRI) by means of multivalent antigen-IgE complexes. Rat basophilic leukemia (RBL-2H3) cells, a commonly used model of mast cell degranulation, are sensitized with anti-DNP specific IgE and challenged with multivalent DNP-BSA. The release of β-hexosaminidase into the supernatant is measured by enzymatic conversion of the fluorogenic substrate 4-methylumbelliferyl-N-acetyl-[…] to N-acetyl-β-D-glucosamine and highly fluorescent methylumbelliferone and quantified by fluorescence detection in a Tecan Safire™ plate reader. • 2. Materials […]
Two to 24 hours before incubation with test compounds the medium was removed and cells were sensitized with 0.4 μg/ml anti-DNP IgE in fresh medium. […] Hexosaminidase activity in supernatants and lysates was measured by incubating 25 μl aliquots with 100 μl MUG substrate solution in a 96-well plate at 37° C. for 30 min. […] Fluorescence was measured in a Tecan Safire™ plate reader at 365 nm excitation and 440 nm emission settings.
Each compound is tested in duplicates in at least three independent experiments. β-hexosaminidase release is calculated after subtraction of unspecific release (release without addition of antigen) using the formula: […]

[3] = Betapolyomavirus macacae, M-HeLa, 30 μM, compared to solvent
[4] = unidentified influenza virus, PR8, MDCK, read-out: inhibition of PR8 virus replication

Row | Molecule | disrafting activity in the DLRA (in words) (Raft liposomes) | inhibitory effect on viral infection in the VSV counterscreen (in words) [1] | % disrafting in the DLRA with perylene (Raft liposomes) | % disrafting in the DLRA with GS-96 (Raft liposomes) | further results
1 | CCCCCCCCCCCC=C1CC[C@H]2[C@@H]3CCC4CC(=O)CC[C@]4(C)[C@H]3CC[C@]12C (relative stereo) [Compound 10ak, cis-Δ^17(20)-Dodecylidene-3-androstanone] | high negative or positive values |  |  |  | inhibition of HIV infection (HIV-1 strain NL4-3): 23%
2 | C/C=C1/CC[C@H]2[C@@H]3CCc4cc(OC(C)=O)ccc4[C@H]3CC[C@]12C (relative stereo) [Compound 10db, cis-Δ^17(20)-19-Norpregna-1,3,5(10),17(20)-tetraen-3-yl acetate] | high negative or positive values | no inhibitory effect on viral infection at all | −536% |  | inhibition of HIV infection (HIV-1 strain NL4-3): 27%; inhibition of SV40 infection (Wild type SV40 viruses; 30 μM, compared to solvent): 52.2%
3 | C[C@]12CC[C@@H](O)C[C@@H]1CC[C@@H]1[C@@H]2CC[C@]2(C)C(=O)CC[C@@H]12 [Androsterone, reference compound] | do not show significant disrafting activity |  |  |  | % disrafting in the DLRA (Raft liposomes): 0%
4 | CO[C@@H]1CC[C@@]2(C)[C@@H](CC[C@H]3[C@@H]4CCC[C@@]4(C)CC[C@@H]32)C1 [Compound 10ac, 3alpha-Methoxy-5alpha-androstane] | high negative or positive values | no inhibitory effect on viral infection at all | about +68% |  | inhibition at 30 µM (Wild type SV40 viruses; [3]): 12.9%
5 | C/C=C1/CCC2C3CCC4C[C@@H](O)CC[C@]4(C)C3CC[C@]12C (stereo partly drawn) [Compound 10ad, cis-Δ^17(20)-5alpha-Pregnen-3beta-ol] | high negative or positive values | no inhibitory effect on viral infection at all | about −105% | about −66% | virus budding, percentage with respect to an untreated control (Influenza virus): 61%; inhibition at 30 µM (Wild type SV40 viruses; [3]): 15.2%; inhibition at 20 µM (PR8 virus; [4]): 59.6%
6 | C/C=C1/CCC2C3CCC4CC(=O)CC[C@]4(C)C3CC[C@]12C (stereo partly drawn) [Compound 10ae, cis-Δ^17(20)-5alpha-Pregnen-3-one] | high negative or positive values |  | about −43% | ~−20% | virus budding, percentage with respect to an untreated control (Influenza virus): about 140%; inhibition at 50 µM (PR8 virus; [4]): 32.9%
7 | CC[C@H]1CC[C@H]2[C@@H]3CC[C@H]4C[C@@H](O)CC[C@]4(C)[C@H]3CC[C@]12C [Compound 10af, 5alpha-Pregnan-3beta-ol] | high negative or positive values | no inhibitory effect on viral infection at all | −217% | −74.7% | inhibition at 30 µM (Wild type SV40 viruses; [3]): 18.9%; inhibition at 50 µM (PR8 virus; [4]): 27.9%
8 | CC[C@H]1CCC2C3CCC4C[C@H](N=[N+]=[N-])CC[C@]4(C)C3CC[C@@]21C (stereo partly drawn) [Compound 10ag, 5alpha-Pregnan-3alpha-azide] | high negative or positive values |  | −71.8% | −187% | 
9 | C/C=C1/CCC2C3CCc4cc(O)ccc4C3CC[C@]12C (stereo partly drawn) [Compound 10da, cis-Δ^17(20)-19-Norpregna-1,3,5(10),17(20)-tetraen-3-ol] | high negative or positive values | no inhibitory effect on viral infection at all | −729% |  | inhibition at 30 µM (HIV-1 strain NL4-3): 18%; inhibition at 15 µM (Wild type SV40 viruses; Betapolyomavirus macacae, M-HeLa, 15 μM): 29.6%
10 | C/C=C1/CCC2C3CCc4cc(OC)ccc4C3CC[C@]12C (stereo partly drawn) [Compound 10dc, cis-Δ^17(20)-19-Norpregna-1,3,5(10),17(20)-tetraen-3-yl methyl ether] | high negative or positive values |  | −139% |  | inhibition at 30 µM (HIV-1 strain NL4-3): 38%
11 | CC(C)CCC[C@@H](C)[C@H]1CC[C@H]2[C@@H]3CC=C4C[C@@H](O)CC[C@]4(C)[C@H]3CC[C@]12C [cholesterol, reference compound] | do not show significant disrafting activity |  |  |  | % disrafting in the DLRA (Raft liposomes): 0%
12 | C[C@]12CC[C@H](O)C[C@@H]1CC[C@@H]1[C@@H]2CC[C@]2(C)C(=O)CC[C@@H]12 [epiandrosterone, reference compound] | do not show significant disrafting activity |  |  |  | % disrafting in the DLRA (Raft liposomes): 0%
13 | cis-Δ^17(20)-Dodecylidene-3alpha-aminoandrostan [Compound 10al] | high negative or positive values |  | −216% |  | inhibition of PR8 virus replication (PR8 virus; 12.5 μM, MDCK cells): 54%; inhibition of release of β-hexosaminidase [2]: 61%
